# Results reported in US12269800B2, “Delivery of therapeutic alkaloid compounds” (priority 2021, dated 2025).
# Where two headings read alike, the source gives them in different places.
# Tests used:
# [1] = Description: General Procedure for intravenous pharmacokinetic study in mice: Male C57/BL6 mice were used to evaluate each compound, with n=3 mice/time point. Animals were administered through intravenous route with solution formulation at 2 mg/kg dose. […] Following blood collection, immediately, animals were sacrificed, and vena-cava was cut open and blood was drained. […] Brain samples were collected from set of three mice at each time point. […] Brain samples were homogenized using 2 volumes of ice-cold PBS (pH-7.4) of brain weight. […] Concentrations of compound (or compound and metabolite) in mouse plasma and brain samples were determined by fit for purpose LC-MS/MS method.
# [2] = fermentation, exposure to light, exposure to heat, aqueous medium; cited from earlier work
# [3] = format: physicochemical
# Description: The hydrolysis kinetics was under a certain temperature and measured by LCMS at a certain time interval. The corresponding LCMS chromatograms were recorded and the conversions were calculated. The hydrolysis conditions and the data were summarized in below table. LCMS spectra were obtained using Agilent 1200G1956A or SHIMADZU LCMS-2020. Standard LCMS conditions were as follows (running time 1.55 minutes):
# Acidic condition: Mobile Phase A: 0.0375% TFA in water (v/v). Mobile Phase B: 0.01875% TFA in acetonitrile (v/v); Column: Kinetex EVO C18 30*2.1 mm, 5 μm.
# Basic condition: Mobile Phase A: 0.025% NH3—H2O in water (v/v). Mobile Phase B: Acetonitrile; Column: Kinetex EVO C18 2.1×30 mm, 5 μm.
# Conversion (%)=peak area 1/(peak area 1+peak area 2)*100%, peak area 1 is the integration of hydrolyzed product, peak area 2 is the integration of starting material.
# [4] = Plasma Stability Assay of Example A3, human plasma; conditions: % of prodrug compound remaining, 37° C., 0.0 min
# [5] = Oral dose pharmacokinetic study in mice (10 mg/kg)
# Description: Total thirty-five male mice were used for each study with n=5 mice/time point. Animals were administered through oral route with solution formulation at 10 mg/kg dose. The formulation vehicle used was normal saline. […] Brain samples were collected from set of five mice at 0.083, 0.25, 0.50, 1.0, 1.5, 2.0 and 3.0 h.
# The plasma and brain concentration-time data of 001 was used for the pharmacokinetic analysis.
# [6] = Pharmacokinetics of 043 and 001 in mice after oral 043 (75 mg/kg); format: in vivo, male C57BL/6 mice
# Description: Total twelve male mice were used in this study. […] The formulation vehicle used was normal saline.
# The plasma and brain concentration-time data of 043 and 001 was used for the pharmacokinetic analysis.
# The extraction procedure for plasma/brain samples and the spiked plasma/brain calibration standards were identical:
# A 25 μL of study sample plasma/brain (dilution applied to some samples) or spiked plasma calibration standard was added to individual pre-labeled micro-centrifuge tubes followed by 100 μL of internal standard prepared in acetonitrile (Glipizide-500 ng/mL) was added except for blank, where 100 μL of acetonitrile was added. Samples were vortexed for 5 minutes. Samples were centrifuged for 10 minutes at a speed of 4000 rpm at 4° C. Following centrifugation, 100 μL of clear supernatant was transferred in 96 well plates and analyzed using LC-MS/MS.
# Remark: listed apart in the source
# [7] = Plasma Stability Assay of Example A3, mouse plasma; conditions: % of prodrug compound remaining, 37° C.
# [8] = 5 µM
# [9] = Hydrolysis Assay of Example A2, Condition 1 (SGF with pepsin, pH 1.5, 37° C.); format: physicochemical
# [10] = format: physicochemical; conditions: DI water, 25° C., 0.5 mM
# [11] = Plasma Stability Assay of Example A4, human plasma; conditions: 37° C., % prodrug remaining
# [12] = Plasma Stability Assay of Example A4, rat plasma; conditions: 37° C., % prodrug remaining
# Description: 50 uL aliquots of positive controls and test compounds spiked into rat or human plasma (n=2) were added to a pre-warmed plate (37° C.) and shaken at 50 rpm. At each respective time point, the reaction was stopped by adding 500 μL of acetonitrile containing internal standards (100 nM aprozolam, 200 nM caffeine, 100 nM tolbutamide). All samples were vortexed for 10 minutes, followed by centrifugation at 3,220 g for 30 minutes to precipitate proteins. 100 μL of the supernatant is transferred to a new plate. The supernatant will be diluted with ultrapure water according to the LC-MS signal response and peak shape.
# [13] = 10 mg/kg po of the labelled compound in mice
# [14] = analyte as labelled, single oral administration of 043, 75 mg/kg
# [15] = pH = 2.0, 25° C., 0.5 mM, 0.01M HCl, 0-24 h
# [16] = brain, analyte as labelled, single oral administration of 043, 75 mg/kg
# [17] = plasma, analyte as labelled, single oral administration of 043, 75 mg/kg
compound,measurement,setting,value
"CCC(=O)OC1=C[C@@H]2N(C)CC[C@]2(c2ccc(OC)c(OC)c2)CC1 [Compound 317, [(3aS,7aS)-3a-(3,4-dimethoxyphenyl)-1-methyl-3,4,5,7a-tetrahydro-2H-indol-6-yl] propanoate]",conversion to 001 in vivo,[1]; 2 mg/kg iv in mice,converts to 001 in vivo
same,001 quantifiable in plasma up to,"[1]; male, C57BL/6, mouse, in vivo",60 min
same,plasma levels of 001,"[1]; mouse, in vivo, iv, 2 mg/kg",not detectable
COc1ccc([C@@]23CCC(=O)C[C@@H]2N(C)CC3)cc1OC [mesembrine],stability,[2],unstable
"COc1ccc([C@]23CCN(C)[C@H]2CC2(CC3)OCCO2)cc1OC (racemic) [Compound 013, 3′a-(3,4-dimethoxyphenyl)-1′-methyl-spiro[1,3-dioxolane-2,6′-2,3,4,5,7,7a-hexahydroindole]]",Notes (stability in words),[3],Stable
same,conversion to mesembrine,"[3]; acidic pH 2.0, 5° C.",not at 5 °C
same,conversion to mesembrine,"[3]; acidic pH 2.0, 37 and 50° C.",converted to mesembrine
"COc1ccc([C@@]23CCC(=O)C[C@@H]2N(C)CC3)cc1OC [Compound 001, mesembrine, reference compound]",Human Plasma Prodrug (%),[4],100.0%
same,001 quantifiable in brain up to,[5]; [13],60 min
same,001 quantifiable in plasma up to,[5]; [13],2 h
same,brain levels of 001,"[5]; at 90, 120, 180 min, 10 mg/kg po in mice",not detectable
same,plasma levels of 001,"[5]; at 180 min, 10 mg/kg po in mice",not detectable
same,bioavailability,"[5]; male, C57BL/6, mouse, plasma, po, 10 mg/kg",< 10%
same,brain concentrations quantifiable up to,[6]; [14],4 h
same,Kp,"[6]; male, C57BL/6, mouse, brain, analyte as labelled, single oral administration of 043, 75 mg/kg, read-out: brain exposure-Kp",2.55
same,Tmax,"[6]; male, C57BL/6, mouse, plasma, analyte as labelled, single oral administration of 043, 75 mg/kg, read-out: Tmax",30 min
same,Human Plasma Prodrug (%),,>99%
same,Notes (stability in words),"[3]; PH = 7.4, 25° C., 0.5 mM, PBS (20 mM), 0-24 h",Stable
same,Notes (stability in words),"[3]; PH = 7.4, 40° C., 0.5 mM, PBS (20 mM), 0-24 h",Stable
same,hydrolysis,"[3]; pH 2.0 in 0.01 M HCl to pH 7.4 in 20 mM PBS, 25° C. to 40° C.",did not further hydrolyze
same,Notes (stability in words),[3]; [15],Stable
same,Notes (stability in words),"[3]; pH = 2.0, 40° C., 0.5 mM, 0.01M HCl, 0-24 h",Stable
same,001 quantifiable in brain up to,[1]; 2 mg/kg iv of the labelled compound in mice,60 min
same,plasma levels of 001,"[1]; at 60, 120, 180 min, 2 mg/kg iv in mice",not detectable
same,brain levels of 001,"[1]; at 120, 180 min, 2 mg/kg iv in mice",not detectable
same,Mouse Plasma Prodrug (%),[7]; 0.0 min,100.0%
"COc1ccc([C@@]23CCC(=NNC(=O)Nc4ccc(C(=O)O)cc4)C[C@@H]2N(C)CC3)cc1OC (racemic) [Compound 259, 4-[[[(3aS,7aS)-3a-(3,4-dimethoxyphenyl)-1-methyl-2,3,4,5,7,7a-hexahydroindol-6-ylidene]amino]carbamoylamino]benzoic acid]",Human Plasma Prodrug (%),"0 min, 5 µM",100%
same,Human Plasma Prodrug (%),"15 min, 5 µM",>99%
same,Human Plasma Prodrug (%),"30 min, 5 µM",96.6%
same,Human Plasma Prodrug (%),"60 min, 5 µM",85.7%
same,Human Plasma Prodrug (%),"120 min, 5 µM",70.0%
same,Human Plasma Prodrug (%),"240 min, 5 µM",54.3%
same,Mouse Plasma Prodrug (%),[8]; 0 min,100%
same,Mouse Plasma Prodrug (%),[8]; 15 min,86.2%
same,Mouse Plasma Prodrug (%),[8]; 30 min,81.0%
same,Mouse Plasma Prodrug (%),[8]; 60 min,67.6%
same,Mouse Plasma Prodrug (%),[8]; 120 min,38.7%
same,Mouse Plasma Prodrug (%),[8]; 240 min,19.8%
COc1ccc([C@@]23CCC(OC(=O)c4ccc(C(F)(F)F)cc4)=C[C@@H]2N(C)CC3)cc1OC [Compound 310],Human Plasma Prodrug (%),[4],100.0%
same,Condition 1 Conversion (%),"[9]; SGF with pepsin pH 1.5, 37° C., 0.5 mM, time 1 min",0%
same,Condition 1 Conversion (%),"[9]; SGF with pepsin pH 1.5, 37° C., 0.5 mM, time 5 min",0%
same,Condition 1 Conversion (%),"[9]; SGF with pepsin pH 1.5, 37° C., 0.5 mM, time 30 min",0%
same,Condition 1 Conversion (%),"[9]; SGF with pepsin pH 1.5, 37° C., 0.5 mM, time 1 h",0%
same,Condition 1 Conversion (%),"[9]; SGF with pepsin pH 1.5, 37° C., 0.5 mM, time 4 h",0%
same,Condition 1 Conversion (%),"[9]; SGF with pepsin pH 1.5, 37° C., 0.5 mM, time 24 h",0%
same,Mouse Plasma Prodrug (%),[7]; 0.0 min,100.0%
same,Mouse Plasma Prodrug (%),[7]; 15 min,0.4%
same,Mouse Plasma Prodrug (%),[7]; 30 min,0.1%
same,Mouse Plasma Prodrug (%),[7]; 60 min,0.1%
same,Mouse Plasma Prodrug (%),[7]; 120 min,0.1%
same,Mouse Plasma Prodrug (%),[7]; 240 min,0.1%
same,Condition 2 Conversion (%),[10]; time 1 min,0%
same,Condition 2 Conversion (%),[10]; time 5 min,0%
same,Condition 2 Conversion (%),[10]; time 30 min,0%
same,Condition 2 Conversion (%),[10]; time 1 h,0%
same,Condition 2 Conversion (%),[10]; time 4 h,0%
same,Condition 2 Conversion (%),[10]; time 24 h,0%
COc1ccc([C@]23CCN(C)[C@H]2CC2(CC3)OCCO2)cc1OC [Compound 043],conversion to 001 in vivo,[6]; 75 mg/kg po in mice,efficiently converts to 001 in vivo
same,brain concentrations quantifiable up to,[6]; [14],4 h
same,brain exposure-Kp,[6]; [14],< 1
same,AUClast,[6]; [16],1787.23 ng·h/mL
same,Cmax,[6]; [16],2684.81 ng/mL
same,Tmax,[6]; [16],30 min
same,AUClast,[6]; [17],2555.07 ng·h/mL
same,Cmax,[6]; [17],3392.53 ng/mL
same,Tmax,[6]; [17],30 min
"COc1ccc([C@]23CCN(C)[C@H]2CC2(CC3)SCCS2)cc1OC (racemic) [Compound 014, (7′aS)-3′a-(3,4-dimethoxyphenyl)-1′-methyl-spiro[1,3-dithiolane-2,6′-2,3,4,5,7,7a-hexahydroindole]]",Notes (stability in words),[3]; [15],Stable
"COc1ccc([C@@]23CCC(OC(C)=O)=C[C@@H]2N(C)CC3)cc1OC [Compound 026, [(3aS,7aS)-3a-(3,4-dimethoxyphenyl)-1-methyl-3,4,5,7a-tetrahydro-2H-indol-6-yl] acetate]",Human Plasma Prodrug (%),[11]; time 0.0 min,100.0%
same,Human Plasma Prodrug (%),[11]; time 10 min,40.3%
same,Human Plasma Prodrug (%),[11]; time 30 min,23.5%
same,Human Plasma Prodrug (%),[11]; time 60 min,12.0%
same,Human Plasma Prodrug (%),[11]; time 120 min,3.4%
same,Human Plasma Prodrug (%),[11]; time 240 min,0.8%
same,Condition 1 Conversion (%),[9]; pH 1.5,0%
same,Conversion (%),[3],0%
same,Notes (stability in words),[3],Stable;
same,Rat Plasma Prodrug (%),[12]; time 0.0 min,100.0%
same,Rat Plasma Prodrug (%),[12]; time 10 min,0.0%
same,Rat Plasma Prodrug (%),[12]; time 30 min,0.0%
same,Rat Plasma Prodrug (%),[12]; time 60 min,0.0%
same,Rat Plasma Prodrug (%),[12]; time 120 min,0.0%
same,Rat Plasma Prodrug (%),[12]; time 240 min,0.0%
"COc1ccc([C@@]23CCC(OC(=O)CC(C)C)=C[C@@H]2N(C)CC3)cc1OC [Compound 334, [(3aS,7aS)-3a-(3,4-dimethoxyphenyl)-1-methyl-3,4,5,7a-tetrahydro-2H-indol-6-yl] 3-methylbutanoate]",conversion to 001 in vivo,[1]; 2 mg/kg iv in mice,converts to 001 in vivo
same,001 quantifiable in brain up to,"[1]; male, C57BL/6, mouse, in vivo",120 min
same,001 quantifiable in plasma up to,"[1]; male, C57BL/6, mouse, in vivo",60 min
same,plasma levels of 001,"[1]; mouse, in vivo, iv, 2 mg/kg",not detectable
